Results as given in ChEMBL document CHEMBL1146205, “Isatin sulfonamide analogs containing a Michael addition acceptor: a new class of caspase 3/7 inhibitors” (J Med Chem, 2007).

How the values were obtained:
[1] = Partition coefficient of the compound, log P; assay type: physicochemical; settings: octanol/water
Caspase-1 = target: T1, Caspase-1 (Homo sapiens, UniProt P29466); assay: Inhibition of human recombinant caspase 1
T1 sequence (P29466 whole entry): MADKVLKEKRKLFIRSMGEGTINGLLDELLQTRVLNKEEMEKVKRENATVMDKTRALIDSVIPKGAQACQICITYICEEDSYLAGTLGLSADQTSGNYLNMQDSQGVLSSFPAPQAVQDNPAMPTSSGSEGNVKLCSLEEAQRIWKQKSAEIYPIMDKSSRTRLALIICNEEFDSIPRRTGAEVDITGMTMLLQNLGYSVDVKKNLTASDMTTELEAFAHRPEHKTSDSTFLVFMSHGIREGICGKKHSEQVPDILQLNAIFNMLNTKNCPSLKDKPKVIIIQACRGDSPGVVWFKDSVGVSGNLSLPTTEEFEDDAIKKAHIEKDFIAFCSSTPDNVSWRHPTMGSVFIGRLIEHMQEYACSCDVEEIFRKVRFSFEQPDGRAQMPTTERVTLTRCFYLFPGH

Caspase-3 = target: T2, Caspase-3 (Homo sapiens, UniProt P42574); assay: Inhibition of human recombinant caspase 3
T2 sequence (P42574 whole entry): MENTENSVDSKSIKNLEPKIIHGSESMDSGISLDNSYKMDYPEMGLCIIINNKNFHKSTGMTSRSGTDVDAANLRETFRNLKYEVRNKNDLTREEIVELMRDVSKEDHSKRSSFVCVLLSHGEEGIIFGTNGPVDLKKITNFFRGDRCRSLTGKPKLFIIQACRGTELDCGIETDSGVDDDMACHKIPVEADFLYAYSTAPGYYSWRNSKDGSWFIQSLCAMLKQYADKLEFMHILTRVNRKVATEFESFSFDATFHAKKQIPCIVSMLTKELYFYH

Caspase-6 = target: T3, Caspase-6 (Homo sapiens, UniProt P55212); assay: Inhibition of human recombinant caspase 6
T3 sequence (P55212 whole entry): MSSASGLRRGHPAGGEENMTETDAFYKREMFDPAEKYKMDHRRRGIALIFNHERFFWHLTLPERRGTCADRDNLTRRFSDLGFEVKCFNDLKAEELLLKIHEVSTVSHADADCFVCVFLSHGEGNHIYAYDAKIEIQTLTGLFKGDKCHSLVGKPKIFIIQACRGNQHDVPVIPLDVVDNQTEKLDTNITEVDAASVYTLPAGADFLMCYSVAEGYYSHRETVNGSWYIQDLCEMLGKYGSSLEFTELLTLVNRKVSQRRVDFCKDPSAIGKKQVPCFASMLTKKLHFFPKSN

Caspase-7 = target: T4, Caspase-7 (Homo sapiens, UniProt P55210); assay: Inhibition of human recombinant caspase 7
T4 sequence (P55210 whole entry): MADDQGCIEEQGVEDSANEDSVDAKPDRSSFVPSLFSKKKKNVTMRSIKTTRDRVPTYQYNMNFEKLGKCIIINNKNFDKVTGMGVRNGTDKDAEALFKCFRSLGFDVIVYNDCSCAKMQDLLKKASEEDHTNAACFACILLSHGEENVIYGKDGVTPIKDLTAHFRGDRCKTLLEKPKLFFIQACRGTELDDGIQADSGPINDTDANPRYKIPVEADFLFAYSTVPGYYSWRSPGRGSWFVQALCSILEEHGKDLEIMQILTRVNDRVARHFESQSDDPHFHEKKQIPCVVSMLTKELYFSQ

Caspase-8 = Caspase-8 (Homo sapiens, UniProt Q14790); assay: Inhibition of human recombinant caspase 8
Sequence of Caspase-8 (Q14790 217-374 limits assumed): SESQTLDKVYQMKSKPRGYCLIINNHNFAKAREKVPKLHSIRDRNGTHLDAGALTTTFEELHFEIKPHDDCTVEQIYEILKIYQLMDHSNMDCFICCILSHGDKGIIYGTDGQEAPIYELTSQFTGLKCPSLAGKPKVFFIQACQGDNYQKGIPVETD
Sequence of Caspase-8 (Q14790 385-479 limits assumed): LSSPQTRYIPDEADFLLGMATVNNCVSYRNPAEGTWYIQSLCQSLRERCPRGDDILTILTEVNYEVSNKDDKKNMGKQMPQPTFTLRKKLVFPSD

For `N#CC(C#N)=C1C(=O)N(Cc2ccccc2)c2ccc(S(=O)(=O)N3CCC[C@H]3COc3ccccc3)cc21`, the logP [1] was 3.5, the IC50 (Caspase-1) was 6220 nM and the IC50 (Caspase-3) was 27.8 nM. For the same molecule, the IC50 (Caspase-6) was 918 nM, the IC50 (Caspase-7) was 51.7 nM and the IC50 (Caspase-8) was > 50000 nM.
Molecule `N#CC(C#N)=C1C(=O)N(Cc2ccccc2)c2ccc(S(=O)(=O)N3CCC[C@H]3COc3cccnc3)cc21` has a logP [1] of 2.45, an IC50 (Caspase-1) of 3250 nM and an IC50 (Caspase-3) of 7.6 nM. For the same molecule, the IC50 (Caspase-6) was 823 nM, the IC50 (Caspase-7) was 32.8 nM and the IC50 (Caspase-8) was > 50000 nM.
In the case of `O=C1C(=O)N(Cc2ccc(Br)cc2)c2ccc(S(=O)(=O)N3CCC[C@H]3COc3ccccc3)cc21`, the logP [1] is reported as 4.82, the IC50 (Caspase-1) is reported as > 15000 nM and the IC50 (Caspase-3) is reported as 9.85 nM. The IC50 (Caspase-6) was 8900 nM, the IC50 (Caspase-7) was 34.8 nM and the IC50 (Caspase-8) was > 50000 nM.
For `O=C1C(=O)N(Cc2ccc(O)cc2)c2ccc(S(=O)(=O)N3CCC[C@H]3COc3cccnc3)cc21`, the logP [1] was 2.25, the IC50 (Caspase-1) was > 15000 nM and the IC50 (Caspase-3) was 3.9 nM. The IC50 (Caspase-6) was 9550 nM, the IC50 (Caspase-7) was 11.7 nM and the IC50 (Caspase-8) was > 50000 nM.
`COc1ccc(CN2C(=O)C(=C(C#N)C#N)c3cc(S(=O)(=O)N4CCC[C@H]4COc4cccnc4)ccc32)cc1` gave a logP [1] of 2.36, an IC50 (Caspase-1) of 3900 nM and an IC50 (Caspase-3) of 7.8 nM. For the same molecule, the IC50 (Caspase-6) was 610 nM, the IC50 (Caspase-7) was 29.6 nM and the IC50 (Caspase-8) was > 50000 nM.
For `N#CC(C#N)=C1C(=O)Nc2ccc(S(=O)(=O)N3CCC[C@H]3COc3ccccc3)cc21`, the logP [1] was 1.07, the IC50 (Caspase-1) was 1830 nM and the IC50 (Caspase-3) was 272 nM. For the same molecule, the IC50 (Caspase-6) was 407 nM, the IC50 (Caspase-7) was 1590 nM and the IC50 (Caspase-8) was > 50000 nM.
Molecule `N#CC(C#N)=C1C(=O)N(Cc2ccc(Br)cc2)c2ccc(S(=O)(=O)N3CCC[C@H]3COc3cccnc3)cc21` has a logP [1] of 3.22, an IC50 (Caspase-1) of 3400 nM and an IC50 (Caspase-3) of 5.1 nM. For the same molecule, the IC50 (Caspase-6) was 515 nM, the IC50 (Caspase-7) was 26.3 nM and the IC50 (Caspase-8) was > 50000 nM.
For `N#CC(C#N)=C1C(=O)N(Cc2ccc(Br)cc2)c2ccc(S(=O)(=O)N3CCC[C@H]3COc3ccccc3)cc21`, the logP [1] was 4.28, the IC50 (Caspase-1) was 5700 nM and the IC50 (Caspase-3) was 20.1 nM. The IC50 (Caspase-6) was 840 nM, the IC50 (Caspase-7) was 92.2 nM and the IC50 (Caspase-8) was > 50000 nM.
In the case of `CN1C(=O)C(=C(C#N)C#N)c2cc(S(=O)(=O)N3CCC[C@H]3COc3ccccc3)ccc21`, the logP [1] is reported as 1.71, the IC50 (Caspase-1) is reported as 2830 nM and the IC50 (Caspase-3) is reported as 119 nM. For the same molecule, the IC50 (Caspase-6) was 698 nM, the IC50 (Caspase-7) was 785 nM and the IC50 (Caspase-8) was > 50000 nM.
`O=C1C(=O)N(Cc2ccc(OCCF)cc2)c2ccc(S(=O)(=O)N3CCC[C@H]3COc3ccccc3)cc21` gave a logP [1] of 4.19.
In the case of `O=C1C(=O)N(Cc2ccc(Br)cc2)c2ccc(S(=O)(=O)N3CCC[C@H]3COc3cccnc3)cc21`, the logP [1] is reported as 3.76, the IC50 (Caspase-1) is reported as > 15000 nM and the IC50 (Caspase-3) is reported as 3.6 nM. The IC50 (Caspase-6) was 5030 nM, the IC50 (Caspase-7) was 6.6 nM and the IC50 (Caspase-8) was > 50000 nM.
Work on `N#CC(C#N)=C1C(=O)N(Cc2ccc(O)cc2)c2ccc(S(=O)(=O)N3CCC[C@H]3COc3cccnc3)cc21` yielded a logP [1] of 1.77, an IC50 (Caspase-1) of 2720 nM and an IC50 (Caspase-3) of 7.8 nM. The IC50 (Caspase-6) was 650 nM, the IC50 (Caspase-7) was 28.3 nM and the IC50 (Caspase-8) was > 50000 nM.
In the case of `N#CC(C#N)=C1C(=O)N(Cc2ccc(O)cc2)c2ccc(S(=O)(=O)N3CCC[C@H]3COc3ccccc3)cc21`, the logP [1] is reported as 2.77, the IC50 (Caspase-1) is reported as 2300 nM and the IC50 (Caspase-3) is reported as 31.8 nM. The IC50 (Caspase-6) was 744 nM, the IC50 (Caspase-7) was 126 nM and the IC50 (Caspase-8) was > 50000 nM.
